Data set [1] concerns the target T1, Prep (Mus musculus, UniProt Q9QUR6). The data set is described as follows: Prep inhibition with CGRP. Format: biochemical.
Data set [2] has as its system Prep. The data set is described as follows: CNS tissue. To be noted: WT mice (C57BL/6), up to 4 hours.
The test system of another data set is recombinant Prep. The data set is described as follows: recombinant Prep. To be noted: mouse, 25°C, up to 60 minutes.
For data set [3], the target named is T1, Prep. In words: label-free LC-MS peptidomics of CNS tissues, S17092 versus vehicle treated mice. Format: in vivo. To be noted: S17092 30 mg/kg i.p.

Data on 5 molecules can be found in paper PMC2813186 (Biochemistry, 2009).

Ends that are not written are not given here.

T1 sequence (Q9QUR6 whole entry): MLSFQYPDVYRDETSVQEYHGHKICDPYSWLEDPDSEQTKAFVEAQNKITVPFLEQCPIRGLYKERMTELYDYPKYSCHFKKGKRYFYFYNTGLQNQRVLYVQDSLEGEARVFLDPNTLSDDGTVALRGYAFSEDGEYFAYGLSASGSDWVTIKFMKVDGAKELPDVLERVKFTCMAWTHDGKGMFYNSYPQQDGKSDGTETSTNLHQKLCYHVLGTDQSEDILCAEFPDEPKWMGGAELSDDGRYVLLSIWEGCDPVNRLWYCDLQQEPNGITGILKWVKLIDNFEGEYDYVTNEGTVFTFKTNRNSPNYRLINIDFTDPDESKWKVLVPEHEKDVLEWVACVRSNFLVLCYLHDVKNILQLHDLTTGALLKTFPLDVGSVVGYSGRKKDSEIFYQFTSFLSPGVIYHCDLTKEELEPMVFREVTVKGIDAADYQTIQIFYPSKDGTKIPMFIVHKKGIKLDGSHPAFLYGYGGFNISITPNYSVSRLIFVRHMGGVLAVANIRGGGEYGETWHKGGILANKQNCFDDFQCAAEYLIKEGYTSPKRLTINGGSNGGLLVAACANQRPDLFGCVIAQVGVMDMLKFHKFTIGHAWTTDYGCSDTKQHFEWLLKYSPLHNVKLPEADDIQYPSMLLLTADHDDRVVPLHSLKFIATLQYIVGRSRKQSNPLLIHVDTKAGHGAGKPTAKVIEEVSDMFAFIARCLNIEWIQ

Consider `CC(C)C[C@H](NC(=O)CNC(=O)[C@H](C)NC(=O)[C@H](CC(C)C)NC(=O)[C@H](CCCNC(=N)N)NC(=O)[C@H](Cc1c[nH]cn1)NC(=O)[C@@H](NC(=O)[C@@H](NC(=O)[C@@H]1CSSC[C@H](NC(=O)[C@@H](N)CO)C(=O)N[C@@H](CC(N)=O)C(=O)N[C@@H]([C@@H](C)O)C(=O)N[C@@H](C)C(=O)N[C@@H]([C@@H](C)O)C(=O)N1)C(C)C)[C@@H](C)O)C(=O)N[C@@H](CC(C)C)C(=O)N[C@@H](CO)C(=O)N[C@@H](CCCNC(=N)N)C(=O)N[C@@H](CO)C(=O)NCC(=O)NCC(=O)N[C@H](C(=O)N[C@H](C(=O)N[C@@H](CCCCN)C(=O)N[C@@H](CC(=O)O)C(=O)N[C@@H](CC(N)=O)C(=O)N[C@@H](Cc1ccccc1)C(=O)N[C@H](C(=O)N1CCC[C@H]1C(=O)N[C@H](C(=O)N[C@@H](CC(N)=O)C(=O)N[C@H](C(=O)NCC(=O)N[C@@H](CO)C(=O)N[C@@H](CCC(=O)O)C(=O)N[C@@H](C)C(=O)N[C@@H](Cc1ccccc1)C(N)=O)C(C)C)[C@@H](C)O)C(C)C)C(C)C)C(C)C` [CGRP(1–37), calcitonin gene-related peptide], for which, at Prep [1], the IC50 (as a rule, the midpoint of a concentration-inhibition curve) worked out at 2000 nM. Consider APPEPVPPPRAAPAPTHV, for which the fragment found entry in the data set with Prep [2] is reported as “Vgf(490–502)”. For GGVVKDNFVPTNVGSEAF-NH2, the fragment found entry in the data set with recombinant Prep is “CGRP(30–37)”.

Turning to GGVVKDNFVPTNVGSEAF-NH2 [CGRP(20–37)], the “Levels of Prep substrates in the spinal cord 1 hour and 4 hours after i.p. S17092 administration” value at Prep [3] is “significantly elevated at 1 hour (gray bar) and 4 hours”. Take MDELYPMEPEEEANGGEILA: the fragment found result with Prep [2] is reported as “Penk(123–133)”.
